Columns and labels:
Experiment in all cases: radiometric filter-binding kinase assay, Kinase HotSpot
Conditions in all cases: compound 0.5 µM; ATP 10 µM
[1] = target: GRK7 (human) (UniProt Q8WTQ7)
[2] = target: IRAK4 (human) (UniProt Q9NWZ3)
[3] = target: TXK (human) (UniProt P42681)
[4] = target: PIM3 (human) (UniProt Q86V86)
[5] = target: PIM2 (human) (UniProt Q9P1W9)
[6] = target: PASK (human) (UniProt Q96RG2)
[7] = target: TYRO3 (human) (UniProt Q06418)
[8] = target: TGFBR1 (human) (UniProt P36897)
[9] = target: BTK (human) (UniProt Q06187)
[10] = target: OXSR1 (human) (UniProt O95747)
[11] = target: NEK6 (human) (UniProt Q9HC98)
[12] = target: MAP3K5 (human) (UniProt Q99683)
[13] = target: TNK2 (human) (UniProt Q07912)
[14] = target: PBK (human) (UniProt Q96KB5)
[15] = target: NEK11 (human) (UniProt Q8NG66)
[16] = target: TAOK1 (human) (UniProt Q7L7X3)
[17] = target: PRKCA (human) (UniProt P17252)
[18] = target: MAPK10 (human) (UniProt P53779)
[19] = target: GRK4 (human) (UniProt P32298)
Chain of GRK4 (human) (P32298 whole entry, looked up): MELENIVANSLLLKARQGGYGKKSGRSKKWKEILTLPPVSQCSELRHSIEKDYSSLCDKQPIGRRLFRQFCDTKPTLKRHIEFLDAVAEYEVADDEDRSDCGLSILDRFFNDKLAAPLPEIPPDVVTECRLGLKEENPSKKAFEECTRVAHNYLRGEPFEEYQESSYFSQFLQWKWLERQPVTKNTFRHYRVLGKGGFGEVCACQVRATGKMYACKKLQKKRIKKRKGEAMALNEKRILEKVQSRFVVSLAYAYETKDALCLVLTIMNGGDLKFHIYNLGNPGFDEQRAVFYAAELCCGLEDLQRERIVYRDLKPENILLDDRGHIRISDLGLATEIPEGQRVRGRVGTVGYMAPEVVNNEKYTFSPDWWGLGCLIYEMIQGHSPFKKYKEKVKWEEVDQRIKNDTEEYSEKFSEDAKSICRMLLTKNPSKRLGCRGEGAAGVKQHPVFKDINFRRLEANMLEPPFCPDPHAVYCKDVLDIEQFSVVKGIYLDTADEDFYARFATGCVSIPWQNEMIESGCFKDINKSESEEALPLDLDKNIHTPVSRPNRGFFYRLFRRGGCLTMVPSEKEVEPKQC

[20] = target: NEK3 (human) (UniProt P51956)
[21] = target: PLK1 (human) (UniProt P53350)
Chain of PLK1 (human) (P53350 whole entry, looked up): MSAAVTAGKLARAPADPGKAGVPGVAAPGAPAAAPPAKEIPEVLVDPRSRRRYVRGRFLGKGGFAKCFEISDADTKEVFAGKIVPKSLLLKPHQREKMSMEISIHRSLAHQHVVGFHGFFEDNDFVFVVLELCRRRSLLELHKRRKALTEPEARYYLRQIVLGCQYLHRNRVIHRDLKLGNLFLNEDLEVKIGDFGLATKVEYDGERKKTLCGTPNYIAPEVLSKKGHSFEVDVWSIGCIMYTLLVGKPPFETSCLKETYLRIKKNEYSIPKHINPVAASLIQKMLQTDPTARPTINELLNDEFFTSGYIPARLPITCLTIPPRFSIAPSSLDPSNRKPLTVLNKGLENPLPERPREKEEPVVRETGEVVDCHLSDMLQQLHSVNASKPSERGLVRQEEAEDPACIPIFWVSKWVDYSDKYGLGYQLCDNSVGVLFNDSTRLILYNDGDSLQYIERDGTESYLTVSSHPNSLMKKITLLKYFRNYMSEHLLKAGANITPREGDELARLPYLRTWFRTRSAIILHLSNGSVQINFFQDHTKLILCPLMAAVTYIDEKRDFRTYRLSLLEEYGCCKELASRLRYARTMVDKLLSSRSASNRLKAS

[22] = target: ITK (human) (UniProt Q08881)
Chain of ITK (human) (Q08881 whole entry, looked up): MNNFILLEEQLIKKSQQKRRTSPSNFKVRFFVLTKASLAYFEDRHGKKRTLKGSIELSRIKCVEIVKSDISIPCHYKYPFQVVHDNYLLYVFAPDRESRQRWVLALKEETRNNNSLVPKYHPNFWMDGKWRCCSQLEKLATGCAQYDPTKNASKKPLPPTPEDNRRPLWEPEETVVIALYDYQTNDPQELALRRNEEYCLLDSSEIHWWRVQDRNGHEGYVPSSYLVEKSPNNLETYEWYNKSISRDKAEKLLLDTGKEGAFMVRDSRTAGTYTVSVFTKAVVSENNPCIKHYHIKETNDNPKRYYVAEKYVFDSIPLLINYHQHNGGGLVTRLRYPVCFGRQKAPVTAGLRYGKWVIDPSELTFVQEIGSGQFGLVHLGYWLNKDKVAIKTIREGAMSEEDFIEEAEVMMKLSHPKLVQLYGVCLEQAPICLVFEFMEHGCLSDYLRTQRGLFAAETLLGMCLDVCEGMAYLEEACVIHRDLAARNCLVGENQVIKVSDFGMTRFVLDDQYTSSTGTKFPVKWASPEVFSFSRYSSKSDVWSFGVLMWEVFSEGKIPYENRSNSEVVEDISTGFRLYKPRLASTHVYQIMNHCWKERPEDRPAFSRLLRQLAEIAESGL

[23] = target: INSR (human) (UniProt P06213)
[24] = target: MAP3K8 (human) (UniProt P41279)
[25] = target: MYO3B (human) (UniProt Q8WXR4)
[26] = target: FGFR4 (human) (UniProt P22455)
[27] = target: ULK3 (human) (UniProt Q6PHR2)
[28] = target: TYK2 JH1 catalytic (human) (UniProt P29597)
[29] = target: CHEK1 (human) (UniProt O14757)
[30] = target: RPS6KB1 (human) (UniProt P23443)
[31] = target: ADRBK2 (human) (UniProt P35626)
[32] = target: CDK4 CCND3 (human) (UniProt P30281+P11802)
[33] = target: RPS6KA1 KD1 KD2 (human) (UniProt Q15418)
[34] = target: YES1 (human) (UniProt P07947)
[35] = target: HCK (human) (UniProt P08631)
[36] = target: MAP2K1 (human) (UniProt Q02750)
[37] = target: NEK2 (human) (UniProt P51955)
Chain of NEK2 (human) (P51955 whole entry, looked up): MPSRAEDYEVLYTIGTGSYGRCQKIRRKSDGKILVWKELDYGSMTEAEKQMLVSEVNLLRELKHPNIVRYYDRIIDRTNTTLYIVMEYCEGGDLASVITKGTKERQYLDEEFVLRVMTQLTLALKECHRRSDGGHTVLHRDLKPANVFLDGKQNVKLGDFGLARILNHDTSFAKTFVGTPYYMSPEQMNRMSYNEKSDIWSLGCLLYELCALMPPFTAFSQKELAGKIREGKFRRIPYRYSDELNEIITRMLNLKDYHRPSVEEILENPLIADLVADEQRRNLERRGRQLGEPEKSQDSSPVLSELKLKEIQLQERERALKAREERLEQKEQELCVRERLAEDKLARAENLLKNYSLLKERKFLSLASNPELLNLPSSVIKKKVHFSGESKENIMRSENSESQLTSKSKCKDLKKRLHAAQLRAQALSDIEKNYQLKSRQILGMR

[38] = target: PRKD1 (human) (UniProt Q15139)
[39] = target: MAPKAPK3 (human) (UniProt Q16644)
[40] = target: MARK4 (human) (UniProt Q96L34)
[41] = target: TGFBR2 (human) (UniProt P37173)
[42] = target: SIK2 (human) (UniProt Q9H0K1)
Chain of SIK2 (human) (Q9H0K1 whole entry, looked up): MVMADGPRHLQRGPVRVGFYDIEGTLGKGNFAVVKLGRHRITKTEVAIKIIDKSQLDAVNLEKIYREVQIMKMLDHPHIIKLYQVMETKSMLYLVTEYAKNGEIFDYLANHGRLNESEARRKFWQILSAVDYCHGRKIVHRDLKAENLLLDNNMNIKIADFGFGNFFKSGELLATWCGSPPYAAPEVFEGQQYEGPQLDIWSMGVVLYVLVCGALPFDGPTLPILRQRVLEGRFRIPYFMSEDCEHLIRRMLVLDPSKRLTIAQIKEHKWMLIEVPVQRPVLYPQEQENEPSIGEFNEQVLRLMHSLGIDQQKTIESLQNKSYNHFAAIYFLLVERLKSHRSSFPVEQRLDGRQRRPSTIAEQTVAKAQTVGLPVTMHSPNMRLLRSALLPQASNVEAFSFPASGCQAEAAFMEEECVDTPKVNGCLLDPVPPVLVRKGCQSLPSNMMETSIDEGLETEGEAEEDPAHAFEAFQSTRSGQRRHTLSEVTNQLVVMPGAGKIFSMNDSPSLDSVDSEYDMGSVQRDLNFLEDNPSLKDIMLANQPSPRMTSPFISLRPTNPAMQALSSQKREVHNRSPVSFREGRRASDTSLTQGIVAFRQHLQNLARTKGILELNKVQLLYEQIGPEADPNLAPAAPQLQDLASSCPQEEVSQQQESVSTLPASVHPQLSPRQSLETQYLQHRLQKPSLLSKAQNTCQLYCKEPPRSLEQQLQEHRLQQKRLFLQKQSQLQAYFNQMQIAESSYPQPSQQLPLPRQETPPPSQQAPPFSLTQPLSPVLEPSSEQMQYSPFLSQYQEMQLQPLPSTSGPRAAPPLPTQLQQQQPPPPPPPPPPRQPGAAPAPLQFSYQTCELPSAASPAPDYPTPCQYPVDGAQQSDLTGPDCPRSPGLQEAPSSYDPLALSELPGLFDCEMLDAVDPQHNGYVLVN

Chain of PIM2 (human) (Q9P1W9 whole entry, looked up): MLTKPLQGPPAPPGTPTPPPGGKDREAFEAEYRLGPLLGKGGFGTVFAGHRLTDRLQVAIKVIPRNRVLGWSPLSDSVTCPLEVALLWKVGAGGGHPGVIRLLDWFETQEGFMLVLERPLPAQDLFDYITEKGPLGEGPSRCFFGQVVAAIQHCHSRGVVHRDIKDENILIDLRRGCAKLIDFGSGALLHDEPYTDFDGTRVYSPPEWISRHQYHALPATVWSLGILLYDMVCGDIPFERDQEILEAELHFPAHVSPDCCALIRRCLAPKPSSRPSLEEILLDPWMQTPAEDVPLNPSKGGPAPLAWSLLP
Chain of PASK (human) (Q96RG2 whole entry, looked up): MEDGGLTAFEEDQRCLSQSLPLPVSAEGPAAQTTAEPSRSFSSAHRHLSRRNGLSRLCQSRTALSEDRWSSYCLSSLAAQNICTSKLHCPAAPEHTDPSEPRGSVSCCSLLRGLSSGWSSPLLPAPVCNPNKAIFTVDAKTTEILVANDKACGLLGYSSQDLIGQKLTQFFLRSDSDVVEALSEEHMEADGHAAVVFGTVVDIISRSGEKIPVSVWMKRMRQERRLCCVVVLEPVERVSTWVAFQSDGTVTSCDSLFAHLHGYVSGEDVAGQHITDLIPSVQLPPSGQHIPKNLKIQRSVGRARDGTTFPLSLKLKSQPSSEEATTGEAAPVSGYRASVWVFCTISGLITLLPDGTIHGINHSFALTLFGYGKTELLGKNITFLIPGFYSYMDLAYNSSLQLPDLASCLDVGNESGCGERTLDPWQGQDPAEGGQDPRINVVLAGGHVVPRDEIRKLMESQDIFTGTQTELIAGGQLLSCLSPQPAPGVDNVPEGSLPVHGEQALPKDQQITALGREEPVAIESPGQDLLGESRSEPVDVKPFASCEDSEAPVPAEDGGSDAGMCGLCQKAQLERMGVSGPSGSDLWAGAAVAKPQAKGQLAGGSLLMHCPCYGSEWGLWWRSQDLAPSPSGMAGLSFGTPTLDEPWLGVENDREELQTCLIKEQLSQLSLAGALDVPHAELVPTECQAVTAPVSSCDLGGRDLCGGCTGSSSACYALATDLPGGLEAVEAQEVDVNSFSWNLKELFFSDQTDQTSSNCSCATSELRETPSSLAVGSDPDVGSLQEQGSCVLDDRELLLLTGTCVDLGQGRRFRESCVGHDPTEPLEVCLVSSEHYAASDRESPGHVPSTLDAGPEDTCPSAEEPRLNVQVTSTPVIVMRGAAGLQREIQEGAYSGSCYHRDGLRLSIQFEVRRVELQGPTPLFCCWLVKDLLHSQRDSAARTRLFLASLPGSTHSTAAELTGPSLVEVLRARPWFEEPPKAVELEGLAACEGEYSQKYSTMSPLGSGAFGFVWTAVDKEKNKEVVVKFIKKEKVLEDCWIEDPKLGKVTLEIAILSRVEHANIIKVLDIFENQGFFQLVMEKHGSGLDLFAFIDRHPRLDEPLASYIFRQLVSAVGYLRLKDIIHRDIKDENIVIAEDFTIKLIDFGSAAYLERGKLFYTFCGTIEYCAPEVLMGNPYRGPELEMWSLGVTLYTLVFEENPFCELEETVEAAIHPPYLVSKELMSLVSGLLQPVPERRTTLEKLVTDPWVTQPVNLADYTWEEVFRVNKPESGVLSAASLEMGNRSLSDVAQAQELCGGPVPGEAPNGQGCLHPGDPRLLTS

O=C1NC(=O)C(c2cn(CCCn3ccnc3)c3ccccc23)=C1Nc1ccccc1
residual activity [1]: 86.3%
residual activity [2]: 89.5%
residual activity [3]: 95.3%
residual activity [4]: 97.5%
residual activity [5]: 102%
residual activity [6]: 98%
residual activity [7]: 99.6%
residual activity [8]: 101%
residual activity [9]: 105%
residual activity [10]: 97.2%
residual activity [11]: 93.6%
residual activity [12]: 105%
residual activity [13]: 65.9%
residual activity [14]: 104%
residual activity [15]: 75.6%
residual activity [16]: 101%
residual activity [17]: 32%
residual activity [18]: 100%
residual activity [19]: 91.6%
residual activity [20]: 99.5%
residual activity [21]: 99.5%
residual activity [22]: 93.9%
residual activity [23]: 84.4%
residual activity [24]: 100%
residual activity [25]: 36%
residual activity [26]: 74.6%
residual activity [27]: 84.7%
residual activity [28]: 83.4%
residual activity [29]: 76.6%
residual activity [30]: 42.7%
residual activity [31]: 97.9%
residual activity [32]: 91%
residual activity [33]: 7.54%
residual activity [34]: 89.3%
residual activity [35]: 97.9%
residual activity [36]: 90.6%
residual activity [37]: 106%
residual activity [38]: 94.4%
residual activity [39]: 92.4%
residual activity [40]: 92.6%
residual activity [41]: 134%
residual activity [42]: 90.3%
